What was measured:
[1] = Method C: deoxyribose oxidation in the absence of EDTA (inactive iron complexes)
From the text: (§1) The results are summarized in Table 1; in each case the EC50 values are given in % (w/v).

[2] = Method A: diphenylpicrylhydrazyl free radical, optical density at 513 nm; settings: DPPH radical
From the text: Method A In a first method, use was made of diphenylpicrylhydrazyl (DPPH^o), a relatively stable free radical which produces a purple-colored solution. The parameter determined was the optical density (DO) at 513 nm. The results are summarized in Table 1; in each case the EC50 values are given in % (w/v).

[3] = Method B: hydroxyl radicals from hydrogen peroxide with iron(II) ions and EDTA, deoxyribose oxidation
From the text: Method B In the presence of iron(II)ions and EDTA, hydroxyl radicals were liberated from hydrogen peroxide and used for the oxidation of deoxyribose. The oxidation product forms a pink-colored compound with thiobarbituric acid. Its concentration corresponds to the optical density at 532 nm. It was investigated whether less deoxyribose is oxidized, i.e. fewer free radicals are liberated, in the presence of the test products. The results are summarized in Table 1; in each case the EC50 values are given in % (w/v).

[4] = biological target: Xanthin oxidase (Homo sapiens, UniProt P47989); assay: Method D: Xanthin oxidase, superoxide anion by NBT reduction, optical density at 490 nm; type: biochemical
From the text: Method D Xanthin oxidase is an enzyme which is released as a result of oxidative stress and catabolizes the degradation of the purine bases adenine and guanine into […] and superoxide anions. The latter dismutate spontaneously or in the presence of superoxide dismutase into hydrogen peroxide and oxygen.
The amount of superoxide anion can be determined by NBT reduction via the optical density at 490 nm. It was investigated whether fewer superoxide anions are generated or more anions are destroyed in the presence of the test substances.
as §1

Chain of Xanthin oxidase (P47989 whole entry): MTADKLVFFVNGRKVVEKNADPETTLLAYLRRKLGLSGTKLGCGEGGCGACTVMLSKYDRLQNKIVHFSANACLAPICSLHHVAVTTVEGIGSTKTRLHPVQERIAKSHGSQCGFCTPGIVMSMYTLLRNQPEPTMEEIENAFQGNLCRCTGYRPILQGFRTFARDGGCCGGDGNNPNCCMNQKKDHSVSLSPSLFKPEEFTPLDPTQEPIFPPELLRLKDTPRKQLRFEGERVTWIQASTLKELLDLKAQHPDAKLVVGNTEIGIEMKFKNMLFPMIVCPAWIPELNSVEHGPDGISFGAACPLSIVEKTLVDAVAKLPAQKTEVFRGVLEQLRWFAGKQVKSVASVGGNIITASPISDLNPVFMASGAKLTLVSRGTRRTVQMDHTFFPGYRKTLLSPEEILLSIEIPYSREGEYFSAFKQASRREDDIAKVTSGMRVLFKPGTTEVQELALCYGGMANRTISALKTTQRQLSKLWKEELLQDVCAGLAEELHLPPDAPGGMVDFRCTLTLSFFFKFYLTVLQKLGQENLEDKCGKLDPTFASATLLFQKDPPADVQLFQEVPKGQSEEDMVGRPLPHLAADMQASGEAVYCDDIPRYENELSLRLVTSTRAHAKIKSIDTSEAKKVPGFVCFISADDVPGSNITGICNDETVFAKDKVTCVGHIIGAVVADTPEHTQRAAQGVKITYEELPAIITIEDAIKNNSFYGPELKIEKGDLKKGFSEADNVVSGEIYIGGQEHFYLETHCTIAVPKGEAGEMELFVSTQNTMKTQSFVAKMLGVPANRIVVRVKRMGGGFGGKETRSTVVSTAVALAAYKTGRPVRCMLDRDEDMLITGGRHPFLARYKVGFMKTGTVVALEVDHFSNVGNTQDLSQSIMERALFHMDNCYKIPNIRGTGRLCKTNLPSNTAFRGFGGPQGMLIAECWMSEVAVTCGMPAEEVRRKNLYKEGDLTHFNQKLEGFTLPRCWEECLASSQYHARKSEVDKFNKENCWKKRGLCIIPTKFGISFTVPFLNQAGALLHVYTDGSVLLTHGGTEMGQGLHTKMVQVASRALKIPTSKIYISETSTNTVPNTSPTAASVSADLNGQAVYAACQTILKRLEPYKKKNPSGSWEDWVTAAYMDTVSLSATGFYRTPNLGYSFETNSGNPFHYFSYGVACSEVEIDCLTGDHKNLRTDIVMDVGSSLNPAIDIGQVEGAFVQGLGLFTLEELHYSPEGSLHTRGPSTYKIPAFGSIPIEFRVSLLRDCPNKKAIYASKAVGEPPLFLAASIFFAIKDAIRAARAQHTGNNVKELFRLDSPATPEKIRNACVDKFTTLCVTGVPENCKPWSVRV

O=C1O[C@H]([C@@H](O)CO)C(O)=C1O [Ascorbic acid]
EC50, test method C [1]: 0.9% (w/v)
EC50, test method A [2]: 0.0013 % (w/v)
EC50, test method B [3]: 0.2607% (w/v)
EC50 ([4]; read-out: EC50, test method D (converted)): 33.6 mM

Tocopherol
EC50, test method A [2]: 0.0067 % (w/v)
EC50, test method D [4]: no
